According to ChEMBL document CHEMBL1148622, “Structural insight into the stereoselective inhibition of MMP-8 by enantiomeric sulfonamide phosphonates” (J Med Chem, 2006):

Assays:
[1] = molecular target: 72 kDa type IV collagenase (Homo sapiens, UniProt P08253); test: Inhibitory activity against MMP2
Stromelysin-1 [2] = molecular target: T1, Stromelysin-1 (Homo sapiens, UniProt P08254); test: Inhibitory activity against MMP3
Target sequence in this assay (P08254 whole entry): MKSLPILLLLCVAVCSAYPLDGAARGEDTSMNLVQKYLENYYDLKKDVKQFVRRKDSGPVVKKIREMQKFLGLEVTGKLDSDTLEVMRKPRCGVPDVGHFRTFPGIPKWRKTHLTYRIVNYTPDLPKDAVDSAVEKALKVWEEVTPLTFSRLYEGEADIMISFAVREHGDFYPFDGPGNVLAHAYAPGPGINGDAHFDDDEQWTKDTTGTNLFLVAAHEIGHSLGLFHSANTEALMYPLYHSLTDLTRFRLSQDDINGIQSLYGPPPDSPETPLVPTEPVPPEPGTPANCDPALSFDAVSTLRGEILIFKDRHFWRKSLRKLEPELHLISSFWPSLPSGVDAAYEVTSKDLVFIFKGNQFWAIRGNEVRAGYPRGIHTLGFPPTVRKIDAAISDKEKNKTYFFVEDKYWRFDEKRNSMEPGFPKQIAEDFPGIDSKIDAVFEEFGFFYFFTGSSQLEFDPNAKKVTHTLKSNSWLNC

Stromelysin-1 [3] = molecular target: T1, Stromelysin-1; test: Inhibitory activity against MMP3 at 0.1 mM
Target sequence in this assay (P08254 100-477 limits assumed): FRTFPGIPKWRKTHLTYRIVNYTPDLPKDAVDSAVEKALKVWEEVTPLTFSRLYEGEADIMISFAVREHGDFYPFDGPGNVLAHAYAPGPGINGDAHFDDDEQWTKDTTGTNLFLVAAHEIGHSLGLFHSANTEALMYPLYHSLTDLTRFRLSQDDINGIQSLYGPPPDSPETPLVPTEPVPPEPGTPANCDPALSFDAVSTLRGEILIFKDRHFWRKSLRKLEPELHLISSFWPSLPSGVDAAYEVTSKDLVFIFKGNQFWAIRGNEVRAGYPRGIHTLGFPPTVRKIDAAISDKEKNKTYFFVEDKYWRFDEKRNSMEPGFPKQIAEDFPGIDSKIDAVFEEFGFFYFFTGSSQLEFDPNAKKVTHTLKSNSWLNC

72 kDa type IV collagenase, sequence (P08253 whole entry): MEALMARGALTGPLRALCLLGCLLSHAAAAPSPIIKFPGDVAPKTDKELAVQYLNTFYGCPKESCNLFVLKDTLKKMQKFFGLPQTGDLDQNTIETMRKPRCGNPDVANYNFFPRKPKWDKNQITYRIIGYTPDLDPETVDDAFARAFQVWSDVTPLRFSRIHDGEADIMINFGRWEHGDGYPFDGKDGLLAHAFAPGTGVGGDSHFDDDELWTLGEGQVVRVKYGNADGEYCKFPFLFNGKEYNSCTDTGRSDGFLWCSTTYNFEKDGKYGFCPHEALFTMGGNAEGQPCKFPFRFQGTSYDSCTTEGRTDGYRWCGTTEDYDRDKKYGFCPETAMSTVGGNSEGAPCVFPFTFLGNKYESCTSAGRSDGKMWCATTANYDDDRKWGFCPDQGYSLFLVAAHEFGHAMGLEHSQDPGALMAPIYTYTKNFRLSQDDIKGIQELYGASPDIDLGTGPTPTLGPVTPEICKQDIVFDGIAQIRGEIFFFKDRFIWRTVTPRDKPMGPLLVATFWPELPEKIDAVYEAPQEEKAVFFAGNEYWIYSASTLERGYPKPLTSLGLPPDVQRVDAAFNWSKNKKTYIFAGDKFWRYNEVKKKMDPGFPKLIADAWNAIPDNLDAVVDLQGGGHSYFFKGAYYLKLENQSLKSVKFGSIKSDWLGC

Row | IC50 [1] | IC50 (Stromelysin-1 [2]) | Ki [1] | inhibition (Stromelysin-1 [3]) | Ki (Stromelysin-1 [2]) | SMILES
1 | 3 nM | 8 nM | – | – | – | CC(C)[C@@H](NS(=O)(=O)c1ccc(-c2ccc(Br)cc2)cc1)C(=O)NO
2 | – | – | 1200 nM | < 15% | – | COc1ccc(-c2ccc(S(=O)(=O)N[C@H](C(C)C)P(=O)(O)O)cc2)cc1
3 | – | – | 5 nM | – | 40 nM | COc1ccc(-c2ccc(S(=O)(=O)N[C@@H](C(C)C)P(=O)(O)O)cc2)cc1
